Holding throughout (format): cell-based, Human
In assay [1] the test system is CAL-62. Nature of the assay: CCK-8 tumor cell proliferation, CAL-62. Also noted: IC50 for inhibiting the proliferation of tumor cells, CAL-62: scale not given here. Particulars: for pIC50: Homo sapiens, Table 18, FAK inhibitor based, CAL-62, read-out: IC50 inhibiting proliferation of tumor cells, CAL-62; for IC50 for inhibiting the proliferation of tumor cells, CAL-62: 72 h. How it is done:
(§1) The tumor cells used herein were cultured in a cell culture medium listed in table 4 at 37° C. in an incubator with 5% CO2. Prior to experimentation, all cells used were correctly identified by STR profiling, and tested negative for mycoplasma through routine screenings.
(§2) IC50 values of the compounds of the present disclosure (including the compounds in Tables 1 and 3, and compounds of examples) were measured using the Meilun Cell Counting Kit-8 kit from Dalian Meilun Biotech Co., Ltd. Assay details are as follows: tumor cells were seeded in a 96-well plate at a density listed in Table 5. After 24 h, 100 μL of the inoculated cells were treated with 0.5 μL of the compounds of the present disclosure (including the compounds in Tables 1 and 3, and compounds of examples) at 10 different successively decreasing concentrations (starting at the highest concentration of 10 μM; 5-fold serial dilutions). After the cells were treated with the compounds of the present disclosure for a period of time, the cell viability detection reagent was added to the culture medium for cell viability assessment according to the instructions provided with the CCK-8 kit. […] The growth inhibition of the compounds of the present disclosure on cells was plotted by Prism Graphpad software, and the IC50 values of the compounds of the present disclosure were calculated therefrom.

The subject of assay [2] is SR. Briefly: CCK-8 tumor cell proliferation, SR. The note with it: for pIC50: Homo sapiens, SR, read-out: IC50 inhibiting proliferation of tumor cells, SR. How it is done:
as §1, §2

Assay [3] concerns MDA-MB-231. Nature of the assay: CCK-8 tumor cell proliferation, MDA-MB-231. Particulars: Homo sapiens; Table 18, FAK inhibitor based; MDA-MB-231; read-out: IC50 inhibiting proliferation of tumor cells, MDA-MB-231. How it is done: as §1, §2
In assay [4] the test system is CCRF-CEM. Briefly: CCK-8 tumor cell proliferation, CCRF-CEM. Details: IC50 for inhibiting the proliferation of tumor cells, CCRF-CEM: scale not given here. Particulars: for IC50 for inhibiting the proliferation of tumor cells, CCRF-CEM: 96 h. As to the method: as §1, §2
The mark [5] stands for this setting: Table 12, designed based on CDK9 inhibitors.

We go through 15 compounds from patent US20260199323A1, “LIGAND COMPOUNDS FOR E3 UBIQUITIN LIGASE, PROTEIN DEGRADERS DEVELOPED ON BASIS OF LIGAND COMPOUNDS, AND USES THEREOF” (GLUETACS THERAPEUTICS (SHANGHAI) CO., LTD., priority 2021, published 2026).

pIC50: −log10 of the molar value. Read-outs that look alike come from different tables or passages of the source.

As to `CNC(=O)c1ccccc1Nc1cc(Nc2ccc(N3CCN(Cc4cccc5c4CN(C4CCC(=O)NC4=O)C5=O)CC3)cc2OC)ncc1C(F)(F)F` (stereo not drawn) [GT-03718, 2-((2-((4-(4-((2-(2,6-dioxopiperidin-3-yl)-1-oxoisoindolin-4-yl)methyl)piperazin-1-yl)-2-methoxyphenyl)amino)-5-(trifluoromethyl)pyridin-4-yl)amino)-N-methylbenzamide], the pIC50 in assay [1] is 6.30 to 7.00; in assay [2] (Table 18, FAK inhibitor based), 6.30 to 7.00; in assay [3], 5.30 to 6.00.

`CNC(=O)c1ccccc1Nc1cc(Nc2cc(C)c(C3CCN(Cc4ccc5c(c4)C(=O)N(C4CCC(=O)NC4=O)C5=O)CC3)cc2OC(C)C)ncc1C(F)(F)F` (stereo not drawn) [GT-04083, 2-((2-((4-(1-((2-(2,6-dioxopiperidin-3-yl)-1,3-dioxoisoindolin-5-yl)methyl)piperidin-4-yl)-2-isopropoxy-5-methylphenyl)amino)-5-(trifluoromethyl)pyridin-4-yl)amino)-N-methylbenzamide]: the pIC50 in assay [4] (Homo sapiens, Table 18, FAK inhibitor based, CCRF-CEM, read-out: IC50 inhibiting proliferation of tumor cells, CCRF-CEM) was 6.30 to 7.00.

For the compound `CNC(=O)c1ccccc1Nc1cc(Nc2ccc(N3CCC(N(C)Cc4cccc5c4CN(C4CCC(=O)NC4=O)C5=O)CC3)cc2OC)ncc1C(F)(F)F` (stereo not drawn) [GT-03731, 2-((2-((4-(4-(((2-(2,6-dioxopiperidin-3-yl)-1-oxoisoindolin-4-yl)methyl)(methyl)amino)piperidin-1-yl)-2-methoxyphenyl)amino)-5-(trifluoromethyl)pyridin-4-yl)amino)-N-methylbenzamide], the pIC50 in assay [1] is 6.00 to 6.30; in assay [2] (Table 18, FAK inhibitor based) it was 7.00 to 7.30; in assay [3], 5.30 to 6.00.

On to `Cn1ncc(-c2nc(NC3CCN(Cc4ccc5c(c4F)CN(C4CCC(=O)NC4=O)C5=O)CC3)ncc2Cl)c1CC1CC1` (stereo not drawn) [GT-04045, 3-(5-((4-((5-chloro-4-(5-(cyclopropylmethyl)-1-methyl-1H-pyrazol-4-yl)pyrimidin-2-yl)amino)piperidin-1-yl)methyl)-4-fluoro-1-oxoisoindolin-2-yl)piperidine-2,6-dione], for which the “IC50 for inhibiting the proliferation of tumor cells, CCRF-CEM” value in assay [4] (setting [5]) is “A+”. The “IC50 for inhibiting the proliferation of tumor cells, CAL-62” value in assay [1] (setting [5]) is given as “A+”.

As to `Cc1nc2c(F)cc(-c3nc(Nc4ccc(N5CCN(Cc6ccc7c(c6)CN(C6CCC(=O)NC6=O)C7=O)CC5)cn4)ncc3F)cc2n1C(C)C` (stereo not drawn) [GT-03688, 3-(5-((4-(6-((5-fluoro-4-(4-fluoro-1-isopropyl-2-methyl-1H-benzo[d]imidazol-6-yl)pyrimidin-2-yl)amino)pyridin-3-yl)piperazin-1-yl)methyl)-1-oxoisoindolin-2-yl)piperidine-2,6-dione], in assay [2] (Table 14, designed based on CDK4/6 inhibitors, 72 h), the “IC50 for inhibiting the proliferation of tumor cells, SR” value is “A+”.

Regarding `COc1cc(Nc2c(C#N)cnc3cc(OCCCN4CCN(Cc5ccc6c(c5)CN(C5CCC(=O)NC5=O)C6=O)CC4)c(OC)cc23)c(Cl)cc1Cl` (stereo not drawn) [GT-02968, 4-((2,4-dichloro-5-methoxyphenyl)amino)-7-(3-(4-((2-(2,6-dioxopiperidin-3-yl)-1-oxoisoindolin-5-yl)methyl)piperazin-1-yl)propoxy)-6-methoxyquinoline-3-carbonitrile], the “IC50 for inhibiting the proliferation of tumor cells, CAL-62” value in assay [1] (Table 13, designed based on BCR-ABL inhibitors) is “A+”.

In the case of `COc1cc(N2CCC(N(C)Cc3ccc4c(c3)C(=O)N(C3CCC(=O)NC3=O)C4=O)CC2)ccc1Nc1ncc(Cl)c(Nc2ccccc2P(C)(C)=O)n1` (stereo not drawn) [GT-03602, 5-(((1-(4-((5-chloro-4-((2-(dimethylphosphoryl)phenyl)amino)pyrimidin-2-yl)amino)-3-methoxyphenyl)piperidin-4-yl)(methyl)amino)methyl)-2-(2,6-dioxopiperidin-3-yl)isoindoline-1,3-dione], the pIC50 in assay [2] (Table 15, ALK inhibitor based) is 7.00 to 7.30.

Consider `Cc1cnc(Nc2ccc(N3CCC(N(C)Cc4ccc5c(c4)CN(C4CCC(=O)NC4=O)C5=O)CC3)cc2)nc1Nc1cccc(S(=O)(=O)NC(C)(C)C)c1` (stereo not drawn) [GT-03690, N-(tert-butyl)-3-((2-((4-(4-(((2-(2,6-dioxopiperidin-3-yl)-1-oxoisoindolin-5-yl)methyl)(methyl)amino)piperidin-1-yl)phenyl)amino)-5-methylpyrimidin-4-yl)amino)benzenesulfonamide], for which the pIC50 in assay [3] is greater than 7.30.

For `Cn1ncc(-c2nc(NC3CCN(Cc4cc5c(cc4F)C(=O)N(C4CCC(=O)NC4=O)C5)CC3)ncc2Cl)c1CC1CC1` (stereo not drawn) [GT-04046, 3-(5-((4-((5-chloro-4-(5-(cyclopropylmethyl)-1-methyl-1H-pyrazol-4-yl)pyrimidin-2-yl)amino)piperidin-1-yl)methyl)-6-fluoro-1-oxoisoindolin-2-yl)piperidine-2,6-dione], the “IC50 for inhibiting the proliferation of tumor cells, CCRF-CEM” value in assay [4] (setting [5]) is given as “A+”. In addition, the “IC50 for inhibiting the proliferation of tumor cells, CAL-62” value in assay [1] (setting [5]) is on record as “A+”.

For the compound `CN(c1cccc(CNc2nc(Nc3ccc(N4CCC(N5CCN(Cc6ccc7c(c6)CN(C6CCC(=O)NC6=O)C7=O)CC5)CC4)cc3)ncc2C(F)(F)F)c1)S(C)(=O)=O` (stereo not drawn) [GT-03678, N-(3-(((2-((4-(4-(4-((2-(2,6-dioxopiperidin-3-yl)-1-oxoisoindolin-5-yl)methyl)piperazin-1-yl)piperidin-1-yl)phenyl)amino)-5-(trifluoromethyl)pyrimidin-4-yl)amino)methyl)phenyl)-N-methylmethanesulfonamide], in assay [3], the pIC50 was greater than 7.30.

For the compound `Cc1sc2c(c1C)C(c1ccc(Cl)cc1)=N[C@@H](CC(=O)NCc1ccc3c(c1)CN(C1CCC(=O)NC1=O)C3=O)c1nnc(C)n1-2` (stereo partly drawn) [GT-03378, 2-((S)-4-(4-chlorophenyl)-2,3,9-trimethyl-6H-thieno[3,2-f][1,2,4]triazolo[4,3-a][1,4]diazepin-6-yl)-N-((2-(2,6-dioxopiperidin-3-yl)-1-oxoisoindolin-5-yl)methyl)acetamide], the “IC50 for inhibiting the proliferation of tumor cells, CCRF-CEM” value in assay [4] (Table 16, designed based on BET inhibitors) is on record as “A+”.

Take `O=C1CCC(N2C(=O)c3ccc(CBr)cc3C2=O)C(=O)N1` (stereo not drawn) [GT-03788]: the “IC50 for inhibiting the proliferation of tumor cells, CCRF-CEM” value in assay [4] (Table 8, designed based on ER inhibitors) was “A+”.

Turning to `CN(Cc1ccc2c(c1)CN(C1CCC(=O)NC1=O)C2=O)C1CCN(c2ccc(Nc3ncc(C(F)(F)F)c(NCc4cccc(N(C)S(C)(=O)=O)c4)n3)cc2)CC1` (stereo not drawn) [GT-03677, N-(3-(((2-((4-(4-(((2-(2,6-dioxopiperidin-3-yl)-1-oxoisoindolin-5-yl)methyl)(methyl)amino)piperidin-1-yl)phenyl)amino)-5-(trifluoromethyl)pyrimidin-4-yl)amino)methyl)phenyl)-N-methylmethanesulfonamide], the pIC50 in assay [3] is greater than 7.30.

As for `Cn1ncc(-c2nc(NC3CCN(Cc4ccc5c(c4)CN(C4CCC(=O)NC4=O)C5=O)CC3)ncc2Cl)c1CC1CC1` (stereo not drawn) [GT-04044, 3-(5-((4-((5-chloro-4-(5-(cyclopropylmethyl)-1-methyl-1H-pyrazol-4-yl)pyrimidin-2-yl)amino)piperidin-1-yl)methyl)-1-oxoisoindolin-2-yl)piperidine-2,6-dione], the “IC50 for inhibiting the proliferation of tumor cells, CCRF-CEM” value in assay [4] (setting [5]) is “A+”.

Turning to `Cc1cnc(Nc2ccc(N3CCC(N4CCN(Cc5ccc6c(c5)CN(C5CCC(=O)NC5=O)C6=O)CC4)CC3)cc2)nc1Nc1cccc(S(=O)(=O)NC(C)(C)C)c1` (stereo not drawn) [GT-03709, N-(tert-butyl)-3-((2-((4-(4-(4-((2-(2,6-dioxopiperidin-3-yl)-1-oxoisoindolin-5-yl)methyl)piperazin-1-yl)piperidin-1-yl)phenyl)amino)-5-methylpyrimidin-4-yl)amino)benzenesulfonamide], the pIC50 in assay [3] is 5.30 to 6.00.
